Experiments:
[1] = system: Streptococcus pneumoniae; assay: Method of dilutions in liquid medium (minimal inhibitory concentration); type: cell-based; settings: incubation 24 hours at 37° C., growth inhibition by transillumination
Experimental: (§1) A—Method of Dilutions in Liquid Medium A series of tubes were prepared in which the same quantity of nutritive sterile medium is distributed. Increasing quantities of the product to be studied are distributed into each tube, then each tube is sown with a bacterial strain. After incubation for 24 hours in a heating chamber at 37° C., the growth inhibition is evaluated by transillumination, which allows the minimal inhibitory concentrations to be determined, expressed in micrograms/cm^3. The following results were obtained

[2] = system: Streptococcus pyogenes; assay: as above; type: cell-based; settings: incubation 24 hours at 37° C., growth inhibition by transillumination
Experimental: as §1

“2-Fluoro-11,12-dideoxy-3-de[(2,6-dideoxy-3-C-methyl-3-0-methyl-alpha-L-ribohexopyranosyl)oxy]-6-0-methyl-3-oxo-12,11-[oxycarbonyl[[4-[4-(4-aminophenyl)-1H-imidazol-1-yl]butyl]imino]]-eryrthromycin [EX. 2]” showed a minimal inhibitory concentrations [1] of 0.150 micrograms/cm^3 and a minimal inhibitory concentrations [2] of 0.3 micrograms/cm^3.
In the case of `CCC1OC(=O)C(C)C(=O)C(C)C(OC2OC(C)CC(N(C)C)C2O)C(C)(OC)CC(C)C(=O)C(C)C2N(CCCCn3cnc(-c4ccc(N)cc4)c3)C(=O)OC12C` [EX. 1, 11,12-Dideoxy-3-de[(2,6-dideoxy-3-C-methyl-3-0-methyl-alpha-L-ribohexopyranosyl)oxy]-6-0-methyl-3-oxo-12,11-[oxycarbonyl-[[4-[4-(4-aminophenyl)-1H-imidazol-1-yl]butyl]imino]]-eryrthromycin], the minimal inhibitory concentrations [1] is reported as 1.2 micrograms/cm^3 and the minimal inhibitory concentrations [2] is reported as 2.5 micrograms/cm^3.

Source: patent US6407257B1, “Derivatives of erythromycin, their preparation process and their use as medicaments” (Aventis Pharma S.A., priority 1998, dated 2002)
